In patent US20220409629A1, “BENZODIAZEPINE DERIVATIVES FOR TREATING A RESPIRATORY SYNCYTIAL VIRUS (RSV) INFECTION” (priority 2019, published 2022):
Like-named read-outs stand apart in the source and are kept apart here.

Legend:
[1] = Dog pharmacokinetics in vivo; conditions: plasma, male Beagle dogs; for concentration at 8 h: read-out: C 8 h; for AUC(0-t): read-out: PO AUClast
Procedure: The pharmacokinetics of compounds of the invention were studied in vivo in dogs.
Male Beagle dogs were treated with experimental compounds via intravenous administration (n=2; 0.5 mg/kg) or oral administration (n=2; 3 mg/kg or 4 mg/kg). Compounds were formulated as a solution in 20% dimethylacetamide/80% (2-hydroxypropyl)-β-cyclodextrin (20% w/v) (IV administration) or a solution in 10% dimethylacetamide/90% (2-hydroxypropyl)-β-cyclodextrin (20% w/v) (PO administration). […] Serial blood samples were collected from the jugular vein at 0.03, 0.08, 0.25, 0.5, 1, 2, 4, 6, 8 and 24 h post IV dosing of compound, and at 0.08, 0.25, 0.5, 1, 2, 4, 6, 8 and 24 h post oral dosing of compound, and plasma was prepared by centrifugation and stored immediately at −80° C. Samples were subsequently thawed, prepared for analysis by protein precipitation with acetonitrile, and analysed by tandem LCMS using electrospray ionisation using a matrix-matched calibration curve. PK parameters were calculated from the resulting data.

[2] = Liver microsomal stability, human; assay type: in vitro ADME; conditions: pH 7.4; human liver microsomes, 0.5 mg/mL protein, 1 μM compound, NADPH; >80% remaining at 45 min denoted >140; read-out: Liver Microsomal Stability: t1/2 (min); human
Outline: (§1)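 Pooled liver microsomes (0.5 mg/mL protein) in 0.1 M phosphate pH 7.4 with 1 μM compound (0.25% DMSO), started with 1 mM NADPH at 37° C; sampled 0-45 min, minus-NADPH control 45 min. LC-MS/MS depletion slope gave t1/2 and CLint.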

[3] = Liver hepatocyte stability, dog; assay type: in vitro ADME; conditions: dog hepatocytes, 3 μM compound, 60 min, >80% remaining at 60 min denoted >186, read-out: Liver Hepatocyte Stability: t1/2 (min)
Procedure: Cryopreserved pooled hepatocytes were purchased from a reputable commercial supplier and stored in liquid nitrogen prior to use. Williams E media supplemented with 2 mM L-glutamine and 25 mM HEPES and test compound (final substrate concentration 3 μM; final DMSO concentration 0.25%) are pre-incubated at 37° C. prior to the addition of a suspension of cryopreserved hepatocytes (final cell density 0.5×10^6 viable cells/mL in Williams E media supplemented with 2 mM L-glutamine and 25 mM HEPES) to initiate the reaction. The final incubation volume is 500 μL. Two control compounds were included with each species, alongside appropriate vehicle control. The reactions are stopped by transferring 50 μL of incubate to 100 μL acetonitrile containing internal standard at the appropriate time points. Samples were removed at 6 time points (0, 5, 15, 30, 45 and 60 min) over the course of a 60 min experiment. The termination plates are centrifuged at 2500 rpm at 4° C. for 30 min to precipitate the protein. Following protein precipitation, the sample supernatants were combined in cassettes of up to 4 compounds and analysed using generic LC-MS/MS conditions. From a plot of ln peak area ratio (compound peak area/internal standard peak area) against time, the gradient of the line is determined. Subsequently, half-life (t1/2) and intrinsic clearance (CLint) were calculated.

[4] = Liver microsomal stability, dog; assay type: in vitro ADME; conditions: pH 7.4; dog liver microsomes, 0.5 mg/mL protein, 1 μM compound, NADPH; >80% remaining at 45 min denoted >140; read-out: Liver Microsomal Stability: t1/2 (min); dog
Outline: as §1

RSV A2 = assay: RSV plaque reduction assay; assay type: cell-based, respiratory syncytial virus (RSV); conditions: human respiratory syncytial virus, HepG2; Hep-G2 cells, RSV A2, mean of at least two experiments
Outline: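 RSV A2 (100 PFU/well) premixed with eight serial compound dilutions, added to confluent Hep-G2 monolayers for 2 h at 37° C, then held 2 days under CMC overlay containing compound (DMEM, 2% FBS). Plaques immunostained (HRP/TrueBlue) and counted; EC50 is 50% reduction versus virus control from 4-parameter fit, mean of ≥2 experiments.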

[5] = IV 0.5 mg/kg, read-out: IV t1/2 (converted)
[6] = PO 4 mg/kg, read-out: PO t1/2 (converted)

SMILES: O=C(N[C@H]1N=C(c2ccccc2)c2cccc(F)c2NC1=O)c1cnn(C2CCOCC2)c1-c1ccc(NC2CC2)nc1F [Example 21, 5-[6-(Cyclopropylamino)-2-fluoropyridin-3-yl]-N-[(3S)-9-fluoro-2-oxo-5-phenyl-1,3-dihydro-1,4-benzodiazepin-3-yl]-1-(oxan-4-yl)pyrazole-4-carboxamide]
- concentration at 8 h ([1]; Dose: IV/PO 0.5/3 mg/kg): 146 ng/mL
- Cmax ([1]; Dose: IV/PO 0.5/3 mg/kg): 500 ng/mL
- bioavailability ([1]; Dose: IV/PO 0.5/3 mg/kg): 33.6%
- Vd ([1]; IV 0.5 mg/kg): 1.3 L/kg
- clearance ([1]; IV 0.5 mg/kg): 4.2 mL/min/kg
- half-life [1, 5]: 7.6 h
- AUC(0-t) ([1]; PO 3 mg/kg): 3610 ng·h/mL
- half-life ([1]; PO 3 mg/kg, read-out: PO t1/2 (converted)): 5.6 h
- half-life [2]: 170 min
- half-life [3]: > 186 min
- half-life [4]: 124 min
- EC50 (RSV A2): 21 nM

SMILES: CC(C)Nc1ccc(-c2c(C(=O)N[C@H]3N=C(c4ccccc4)c4cccc(F)c4NC3=O)cnn2C2CCOCC2)c(F)n1 [Example 22, N-[(3S)-9-fluoro-2-oxo-5-phenyl-1,3-dihydro-1,4-benzodiazepin-3-yl]-5-[2-fluoro-6-(propan-2-ylamino)pyridin-3-yl]-1-(oxan-4-yl)pyrazole-4-carboxamide]
- concentration at 8 h ([1]; Dose: IV/PO 0.5/4 mg/kg): 281 ng/mL
- Cmax ([1]; Dose: IV/PO 0.5/4 mg/kg): 692 ng/mL
- bioavailability ([1]; Dose: IV/PO 0.5/4 mg/kg): 40.1%
- Vd ([1]; IV 0.5 mg/kg): 1.4 L/kg
- clearance ([1]; IV 0.5 mg/kg): 4.1 mL/min/kg
- half-life [1, 5]: 4.9 h
- AUC(0-t) ([1]; PO 4 mg/kg): 6050 ng·h/mL
- half-life [1, 6]: 6.8 h
- half-life [2]: 287 min
- half-life [3]: 90.7 min
- half-life [4]: 88.6 min
- EC50 (RSV A2): 40 nM

SMILES: CCn1ncc(C(=O)N[C@H]2N=C(c3ccccc3)c3ccccc3NC2=O)c1-c1ccc(NC2CC2)nc1F [Example 4, 1-Ethyl-5-[2-fluoro-6-(cyclopropylamino)pyridin-3-yl]-N-[(3S)-2-oxo-5-phenyl-1,3-dihydro-1,4-benzodiazepin-3-yl]pyrazole-4-carboxamide]
- concentration at 8 h ([1]; Dose: IV/PO 0.5/4 mg/kg): 56.1 ng/mL
- Cmax ([1]; Dose: IV/PO 0.5/4 mg/kg): 780 ng/mL
- bioavailability ([1]; Dose: IV/PO 0.5/4 mg/kg): 41.5%
- Vd ([1]; IV 0.5 mg/kg): 0.79 L/kg
- clearance ([1]; IV 0.5 mg/kg): 10.3 mL/min/kg
- half-life [1, 5]: 1 h
- AUC(0-t) ([1]; PO 4 mg/kg): 2680 ng·h/mL
- half-life [1, 6]: 2.3 h
- half-life [2]: 52 min
- half-life [3]: 42.1 min
- half-life [4]: 14.4 min
- EC50 (RSV A2): 42 nM

SMILES: CCNc1ccc(-c2c(C(=O)N[C@H]3N=C(c4ccccc4)c4cccc(F)c4NC3=O)cnn2C2CCOCC2)c(F)n1 [Example 24, 5-[6-(Ethylamino)-2-fluoropyridin-3-yl]-N-[(3S)-9-fluoro-2-oxo-5-phenyl-1,3-dihydro-1,4-benzodiazepin-3-yl]-1-(oxan-4-yl)pyrazole-4-carboxamide]
- concentration at 8 h ([1]; Dose: IV/PO 0.5/4 mg/kg): 67 ng/mL
- Cmax ([1]; Dose: IV/PO 0.5/4 mg/kg): 450 ng/mL
- bioavailability ([1]; Dose: IV/PO 0.5/4 mg/kg): 22.7%
- Vd ([1]; IV 0.5 mg/kg): 0.86 L/kg
- clearance ([1]; IV 0.5 mg/kg): 6.5 mL/min/kg
- half-life [1, 5]: 1.5 h
- AUC(0-t) ([1]; PO 4 mg/kg): 2300 ng·h/mL
- half-life [1, 6]: 2.4 h
- half-life [2]: > 140 min
- half-life [3]: 139 min
- half-life [4]: 198 min
- EC50 (RSV A2): 33 nM

SMILES: CCn1ncc(C(=O)N[C@H]2N=C(c3ccccc3)c3ccccc3NC2=O)c1-c1ccc(NC(C)C)nc1F [Example 3, 1-Ethyl-5-[2-fluoro-6-(propan-2-ylamino)pyridin-3-yl]-N-[(3S)-2-oxo-5-phenyl-1,3-dihydro-1,4-benzodiazepin-3-yl]pyrazole-4-carboxamide]
- half-life at 1 µM [2]: 287 min
- half-life at 3 µM [3]: 67.4 min
- half-life at 1 µM [4]: 45.3 min
- EC50 (RSV A2): 97 nM
